Test results taken from patent US9360486B2, “Allergen fragments” (Biomay AG, priority 2007, dated 2016).

System: Amb a 1-specific T cell lines (TCL)
Test: T cell epitope mapping of Amb a 1.3: proliferation (3H-thymidine uptake) of TCL stimulated with synthetic peptides
Assay type: cell-based, human
Conditions: for No. positive patients SI > 3 / No. positive patients SI > 5 / % (positive patients SI > 3) / % (positive patients SI > 5): TCL from 48 ragweed pollen-allergic patients, peptide 5 μg/ml; for No. positive patients SI > 3 / No. positive patients SI > 5: 3H-thymidine uptake after 48 hrs; for No. positive patients SI > 3 / % (positive patients SI > 3): stimulation index > 3; for No. positive patients SI > 5 / % (positive patients SI > 5): stimulation index > 5; for T cell activating region recognized by % of patients: classes of prevalence referring to SI>5, 48 TCL
From the text: The T cell response to Amb a 1 was characterized in detail using the established in vitro culture system (Jahn-Schmid et al., J. Immunol. 169: 6005-11, 2002; Jahn-Schmid et al., J. Allergy Clin. Immunol., 115: 399-404, 2005). In total, 85 clinically well-defined patients (75 from Vienna/10 from Milano) with typical case history, positive skin prick test and CAP/RAST tests for ragweed extract were included.
Peripheral blood mononuclear cells (PBMC) were isolated from heparinized blood of allergic patients by Ficoll density gradient centrifugation. To generate allergen-specific T cell lines (TCL) and T cell clones (TCC), 1.5×10^6 PBMC were stimulated with optimal doses of ragweed or mugwort extract (4 μg/ml) or rAmb a 1.3 (10 μg/ml) in 24-well flat-bottomed culture plates (Costar, USA). After 5 days human rIL-2 (10 U/ml, Boehringer, Mannheim, Germany) were added and cultures were continued for additional 7 days. Then, T cell blasts were isolated by density centrifugation. The majority of T cell blasts was further expanded with IL-2 and irradiated PBMC. A small number of T cell blasts were used to establish monoclonal T cell cultures by limiting dilution: 0.3 T cells/well were seeded into 96 well round bottom plates (Nunclone) in the presence of 2×10^5 irradiated (60 Gy) PBMC, 0.25% v/v PHA (Gibco, USA) and rIL-2 (4 U/well) in the medium mentioned above. After 14-21 days, growing microcultures were expanded at weekly intervals with irradiated PBMC and rIL-2. The specificity of TCC was assessed in proliferation assays using irradiated allogeneic or HLA-matched PBMC or irradiated EBV-transformed allogeneic B-cells and 5 μg/ml Amb a 1.3. After 48 hours, cellular uptake of tritiated (^3H)-thymidine was performed to measure proliferation in counts per minute (cpm). When the stimulation index (SI; ratio between cpm obtained in cultures containing TCC plus autologous APC plus antigen, and cpm obtained in cultures containing TCC and APC alone) was >10, responses were considered as positive. Allergen-specific TCC were expanded by alternating turns of stimulation with autologous irradiated APC and allergen or with allogeneic feeder cells and rIL-2.
Amb a 1-specific TCL and TCC were used to identify T cell epitopes of Amb a 1.3. T cell cultures were stimulated with a panel of 121 synthetic 12-mer peptides and one 13-mer representing the C-terminal peptide of Amb a 1.3 (Pepset, Biotrend, Germany). Peptides had been synthesized according to the Amb a 1.3 amino acid sequence and overlapped for 9 amino acid residues with the neighbouring peptides (Table 1). Peptides were used at a concentration of 5 μg/ml for stimulation and proliferation of T cell cultures was determined after 48 hrs by ^3H-thymidine-uptake. Because of the frequently observed high background caused by auto-reactivity in TCL, the mean of the cpm observed with the ten least stimulating peptides (none of the peptides was toxic) was used as negative control in calculations of SI. Throughout this manuscript, a peptide comprised one T cell epitope when the stimulation index was at least 3.0.
T cell epitope mapping of Amb a 1.3 was performed evaluating 48 TCL from different patients ([…]), which had been initiated with ragweed extract (containing the natural allergen) or rAmb a 1.3 (Table 2). TCL induced with either ragweed extract or rAmb a 1.3 from the same individual recognized similar T cell epitopes (Table 2; FIG. 7). […] Therefore, their data were combined for further analysis (Table 3). Typical for many inhalant allergens, multiple T cell activating regions were detected in Amb a 1.3. The number of peptides recognized by T cells from a single individual ranged from 2 to maximum 60 peptides with a mean of 17.8 peptides (median=16/for SI>3; resp. 0-36/11.9/12 for SI>5) (see Table 3). In total, 26 relevant (i.e. recognized by ≧10% of patients studied) T cell activating regions comprising 12-18 aa were identified. […]

Sequence	reactivity with T cells isolated from allergic individuals	No. positive patients SI > 3	No. positive patients SI > 5	% (positive patients SI > 3)	% (positive patients SI > 5)	T cell activating region recognized by % of patients
LATVAFNMFTDN (Amb a 1 fragment) [Peptide 79]	reactivity with T cells	5	2	10.4%	4.2%	–
LCQGNRFLAPDD (Amb a 1 fragment) [Peptide 95]	–	0	0	0.0%	0.0%	–
LDDDVANPKEGT (Amb a 1 fragment) [Peptide 24]	–	2	1	4.2%	2.1%	–
LLENGAIFVTSG (Amb a 1 fragment) [Peptide 108]	reactivity with T cells	27	24	56.3%	50.0%	–
LPGGMIKSNDGP (Amb a 1 fragment) [Peptide 51]	reactivity with T cells	6	3	12.5%	6.3%	–
LRFAAAQNRPLW (Amb a 1 fragment) [Peptide 28]	reactivity with T cells	15	11	31.3%	22.9%	–
LTLMNVKNIIIH (Amb a 1 fragment) [Peptide 44]	reactivity with T cells	15	9	31.3%	18.8%	recognized by 18.8%
LTSSAGVLSCRP (Amb a 1 fragment) [Peptide 120]	reactivity with T cells	14	9	29.2%	18.8%	–
LVDVTLGSTHVT (Amb a 1 fragment) [Peptide 66]	–	4	4	8.3%	8.3%	–
MIPAEPGEAAIK (Amb a 1 fragment) [Peptide 116]	–	6	4	12.5%	8.3%	–
MNVKNIIIHNIN (Amb a 1 fragment) [Peptide 45]	–	2	0	4.2%	0.0%	–
MVINLNQELVVN (Amb a 1 fragment) [Peptide 34]	–	2	2	4.2%	4.2%	–
NETRSLQACEAY (Amb a 1 fragment) [Peptide 5]	–	4	0	8.3%	0.0%	–
NGAIFVTSGSDP (Amb a 1 fragment) [Peptide 109]	reactivity with T cells	12	9	25.0%	18.8%	–
NGAIFVTSGSDPVLTPVQ (Amb a 1 fragment) [Peptide 109-111]	reactivity with T cells	–	–	–	–	recognized by 22.9%
NGGLTLMNVKNI (Amb a 1 fragment) [Peptide 43]	–	4	1	8.3%	2.1%	–
NIIDKCWRGKAD (Amb a 1 fragment) [Peptide 9]	–	3	2	6.3%	4.2%	–
NINIHDVKVLPG (Amb a 1 fragment) [Peptide 48]	reactivity with T cells	10	9	20.8%	18.8%	–
NLNQELVVNSDK (Amb a 1 fragment) [Peptide 35]	–	1	1	2.1%	2.1%	–
NMFTDNVDQRMP (Amb a 1 fragment) [Peptide 81]	reactivity with T cells	7	6	14.6%	12.5%	–
NPKEGTLRFAAA (Amb a 1 fragment) [Peptide 26]	–	0	0	0.0%	0.0%	–
NRQALADCAQGF (Amb a 1 fragment) [Peptide 14]	–	4	0	8.3%	0.0%	–
NVAGSSQIWIDH (Amb a 1 fragment) [Peptide 59]	reactivity with T cells	11	8	22.9%	16.7%	–
NVAGSSQIWIDHCSLSKS (Amb a 1 fragment) [Peptide 59-61]	reactivity with T cells	–	–	–	–	recognized by 58.3%
NYDRWGTYAIGG (Amb a 1 fragment) [Peptide 89]	reactivity with T cells	11	6	22.9%	12.5%	–
PDDQIKKNVLAR (Amb a 1 fragment) [Peptide 98]	reactivity with T cells	13	8	27.1%	16.7%	–
PDDQIKKNVLARTGT (Amb a 1 fragment) [Peptide 98-99]	reactivity with T cells	–	–	–	–	recognized by 16.7%
PILRQASDGDTI (Amb a 1 fragment) [Peptide 55]	–	3	1	6.3%	2.1%	–
PLWIIFKNDMVI (Amb a 1 fragment) [Peptide 31]	reactivity with T cells	11	10	22.9%	20.8%	–
PSVNETRSLQAC (Amb a 1 fragment) [Peptide 4]	–	4	1	8.3%	2.1%	–
